Assay results: patent US9102669B2, “Substituted piperidinyl-pyridazinyl derivatives useful as SCD 1 inhibitors” (Janssen Pharmaceutica NV, priority 2011, dated 2015)
Several values for one entry are separate records, joined by “and”; a condition that tells them apart may be missing. Equal entries are not always repeated.

How the values were obtained:
SCD1 [1] = target: SCD1 (Rattus norvegicus (Rat), UniProt P07308); assay: SCD1 enzymatic assay in rat liver microsomes (RLM); type: biochemical; conditions: rat liver microsomes; for inhibition at 1 µM / % Inh.@ 1 μM: 1 μM test compound; for inhibition at 1 µM: read-out: % Inh.@ 1 μM
Chain of SCD1 (Rattus norvegicus (Rat), UniProt P07308) (P07308 whole entry): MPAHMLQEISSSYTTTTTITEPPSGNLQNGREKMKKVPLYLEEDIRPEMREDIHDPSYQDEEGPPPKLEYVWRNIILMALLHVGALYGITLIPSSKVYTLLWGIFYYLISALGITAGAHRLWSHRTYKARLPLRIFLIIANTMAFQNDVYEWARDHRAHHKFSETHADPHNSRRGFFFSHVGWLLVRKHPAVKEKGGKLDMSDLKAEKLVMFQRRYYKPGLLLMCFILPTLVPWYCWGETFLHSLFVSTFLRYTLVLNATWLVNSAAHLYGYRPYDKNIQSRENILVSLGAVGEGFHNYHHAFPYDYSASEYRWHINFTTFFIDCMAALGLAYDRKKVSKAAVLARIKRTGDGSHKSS
Procedure: Step 1: Preparation of Rat Liver Microsome (RLM):
Sprague Dawley rats from Charles River (200-225 g) underwent 2-cycle of fast-re-feeding (24-hour fast followed by 24-hour feeding with fat-free high carbohydrate diet, Reseach Diet, D00042802). The livers were removed and homogenized 1:4 (w/v) with pre-chilled, homogenizing buffer (10 mM Tris-HCl, 0.25 M sucrose, 1 mM EDTA, pH 7.4, supplemented with protease inhibitor cocktail). The homogenate was spun at 12,000×g for 15 min at 4° C. The supernatant was then re-centrifuged at 100,000×g for 60 min at 4° C. The pellet was re-suspended in 2 ml pre-chilled […] potassium phosphate buffer, pH 7.2, 10 mM EDTA at a concentration of 20 mg/ml. The resulting rat liver microsome (RLM) preparation was stored at −80° C.
Step 2: SCD1 Enzymatic Assay in RLM:
The SCD1 enzymatic assay was done in a volume of 50 μL using 10 μg of RLM (prepared as described above) in a 96-well polypropylene plate (enzyme reaction buffer contains 0.1 M K-Phosphate Buffer, 10 mM ATP, 6 mM MgCl2. 1 mM CoA, 1 mM β-NADH, 1.6 mM L-glutathione, 20 μM Stearoyl-CoA). Stearoyl-[9,10-^3H]-CoA (ARC-0390, 1 mCi/mL, 60 Ci/mmol,) was added at a final concentration of 2 μCi/mL. Test compound was then added to the reaction mixture at the selected concentration. After incubation at room temperature for 2 hours, 5 μL 1 N HCl was added to stop the reaction, followed by addition of 25 μL of 10% charcoal. The reaction mixture was then transferred to 96-well Multiscreen plate (Millipore, Cat#MSFCN6B50). […] The measured cpm values were fitted with Sigmoidal dose-response curve fit with Graphpad Prism.

SCD1 [2] = target: SCD1 (Homo sapiens (Human), UniProt O00767); assay: SCD1 13C-palmitic acid assay in A431 cells; type: cell-based; conditions: read-out: A431 cells 13C-PA IC50
Chain of SCD1 (Homo sapiens (Human), UniProt O00767) (O00767 whole entry): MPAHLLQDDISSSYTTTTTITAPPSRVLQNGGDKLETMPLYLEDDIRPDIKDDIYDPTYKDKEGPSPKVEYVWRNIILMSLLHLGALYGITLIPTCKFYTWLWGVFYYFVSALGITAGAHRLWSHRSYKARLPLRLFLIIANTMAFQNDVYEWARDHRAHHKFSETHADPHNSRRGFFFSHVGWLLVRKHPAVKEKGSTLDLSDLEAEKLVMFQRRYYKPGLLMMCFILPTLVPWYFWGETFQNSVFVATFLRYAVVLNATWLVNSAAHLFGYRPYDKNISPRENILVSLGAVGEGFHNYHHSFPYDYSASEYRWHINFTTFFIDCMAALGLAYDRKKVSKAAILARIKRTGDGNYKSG
Procedure: Human epithelial carcinoma A431 cells were seeded at 100,000 cells/well in complete growth medium (DMEM, Cellgro#10-013-CM, 4.5 g/L glucose, 10% FBS) in the presence of 0.05 mg/mL human insulin (Hannas Pharmaceutical Supply Co Inc, Humanlin 100 U/ml, 4 mg/ml) in 96-well tissue culture plate. 24 hr later, the cells were washed extensively with Assay Buffer (DMEM, Cellgro#10-013-CM, 4.5 g/L glucose, supplemented with 0.05 mg/mL Human Insulin and 0.1% Fatty Acid Free BSA). […] The cells were then returned to the tissue culture incubator (37° C. and 5% CO2) for 4 hrs. At the end of incubation, the cells were washed three times with 200 μL/well Hanks buffer (HBSS) and then stored at −20° C. until extraction.
For fatty acid extraction, after thawing out the plates, 40 μL of 1N KOH (containing 5 μM of internal standard 7,7,8,8-D4 palmitate) was added to each well and cell plates were incubated at 37° C. for 30 minutes. […] Acetonitrile (100 μL) was then added to extract fatty acids, followed by centrifugation at 3000 rpm for 10 minutes. 75 μL of extract was then transferred to a new glass vial in a 96-well cluster plate. 5 μL was injected for LC/MS analysis for detection of ^13C-palmitic acid and ^13C-palmitoleic acid. Formation of product ^13C-palmitoleic acid was determined as an index of SCD1 activity.
LC/MS analysis was performed as following. An Agilent 1100 Liquid Chromatographic System (Palo Alto, Calif.) consisting of a binary pump, a degasser and an autosampler was used. Separation of free fatty acids was performed on a Zorbax SB-C8 column (2.1×50 mm, particle size=3.5 μm). An isocratic elution was carried out with 10 mM triethylamine acetate in water: acetonitrile (3:7) at a flow rate of 0.3 mL/min. The column temperature was set at 30° C. and the sample injection volume was 5 μL. The LC run cycle was 4 min. A Micromass triple-quadrupole Quattro Micro mass […] (Waters, Beverly, Mass.) was interfaced with the LC system through a Z-spray electrospray ion source and was operated in the negative ion mode. Nitrogen was used as nebulizing gas, desolvation gas and cone curtain gas and argon was chosen as collision gas. The triple quadrupole MS source parameters were set as follows: capillary voltage, 3200V; cone voltage, 25V; exctractor 2V; source temperature, 120° C.; desolvation temperature, 300° C.; cone gas flow, 50 L/h; and desolvation gas flow, 700 L/h. […] MassLynx software version 4.0 was used for system control and data processing. The signal of U-^13C-palmitoleic acid was normalized to an internal standard.

SMILES	inhibition at 1 µM (SCD1 [1]) [%]	IC50 (SCD1 [1])	IC50 (SCD1 [2])	% Inh.@ 1 μM (SCD1 [1]) [%]
OCc1cn(-c2ccc(N3CCC(N4CCc5ccc(F)cc54)CC3)nn2)cn1 [Compound #15]	101	11 nM	3 nM	
Cc1cnn(-c2ccc(N3CCC(N4CCc5ccc(F)cc54)CC3)nn2)c1 [Compound #16, 6-fluoro-1-(1-(6-(4-methyl-1H-pyrazol-1-yl)pyridazin-3-yl)piperidin-4-yl)indoline]	100	21 nM	23 nM	
CCn1cc(-c2ccc(N3CCC(N4CCc5ccc(F)cc54)CC3)nn2)cn1 [Compound #21, 1-(1-(6-(1-ethyl-1H-pyrazol-4-yl)pyridazin-3-yl)piperidin-4-yl)-6-fluoroindoline]	94	17 nM	40 nM and 19 nM	
Cc1csc(-c2ccc(N3CCC(N4CCc5ccc(F)cc54)CC3)nn2)n1 [Compound #29, 2-(6-(4-(6-fluoroindolin-1-yl)piperidin-1-yl)pyridazin-3-yl)-4-methylthiazole]	97	7 nM	2 nM	
Cc1ccc(-c2ccc(N3CCC(N4CCc5ccc(F)cc54)CC3)nn2)cn1 [Compound #30, 6-fluoro-1-(1-(6-(6-methylpyridin-3-yl)pyridazin-3-yl)piperidin-4-yl)indoline]	95	6 nM and 19 nM	2 nM and 3 nM	99
Cc1cnc(-c2ccc(N3CCC(N4CCc5ccc(F)cc54)CC3)nn2)s1 [Compound #31, 2-(6-(4-(6-fluoroindolin-1-yl)piperidin-1-yl)pyridazin-3-yl)-5-methylthiazole]	97	31 nM	4 nM and 19 nM	
Cc1ccc(-c2ccc(N3CCC(N4CCc5ccc(F)cc54)CC3)nn2)cc1 [Compound #36, 6-fluoro-1-(1-(6-(p-tolyl)pyridazin-3-yl)piperidin-4-yl)indoline]	92	79 nM	3 nM and 18 nM	
COc1ccc(-c2ccc(N3CCC(N4CCc5ccc(F)cc54)CC3)nn2)cn1 [Compound #37, 6-fluoro-1-(1-(6-(6-methoxypyridin-3-yl)pyridazin-3-yl)piperidin-4-yl)indoline]	98	12 nM	4 nM	
CNC(=O)c1ccc(-c2ccc(N3CCC(N4CCc5ccc(F)cc54)CC3)nn2)cn1 [Compound #42, 5-(6-(4-(6-fluoroindolin-1-yl)piperidin-1-yl)pyridazin-3-yl)-N-methylpicolinamide]	71	35 nM	6 nM	
OCCc1cnn(-c2ccc(N3CCC(N4CCc5ccc(F)cc54)CC3)nn2)c1 [Compound #43, 2-(1-(6-(4-(6-fluoroindolin-1-yl)piperidin-1-yl)pyridazin-3-yl)-1H-pyrazol-4-yl)ethanol]	90	20 nM	11 nM	
CN(C)c1ccc(-c2ccc(N3CCC(N4CCc5ccc(F)cc54)CC3)nn2)cn1 [Compound #44, 5-(6-(4-(6-fluoroindolin-1-yl)piperidin-1-yl)pyridazin-3-yl)-N,N-dimethylpyridin-2-amine]	92	20 nM and 14 nM	32 nM and 28 nM	97
Fc1ccc(-c2ccc(N3CCC(N4CCc5ccc(F)cc54)CC3)nn2)cc1 [Compound #53, 6-fluoro-1-(1-(6-(4-fluorophenyl)pyridazin-3-yl)piperidin-4-yl)indoline]	59	777 nM		
Cn1cc(-c2ccc(N3CCC(n4ccc5ccc(F)cc54)CC3)nn2)cn1 [Compound #63, 6-fluoro-1-(1-(6-(1-methyl-1H-pyrazol-4-yl)pyridazin-3-yl)piperidin-4-yl)-1H-indole]	99			
Cn1cc(-c2ccc(N3CCC(N4CCc5c(F)cccc54)CC3)nn2)cn1 [Compound #66, 4-fluoro-1-(1-(6-(1-methyl-1H-pyrazol-4-yl)pyridazin-3-yl)piperidin-4-yl)indoline]	57	678 nM		
CC(=O)NNC(=O)c1ccc(N2CCC(c3noc4ccc(F)cc34)CC2)nn1 [Compound I2, N′-acetyl-6-(4-(5-fluorobenzo[d]isoxazol-3-yl)piperidin-1-yl)pyridazine-3-carbohydrazide]	27			
Cc1ccc(-c2ccc(N3CCC(c4noc5ccc(F)cc45)CC3)nn2)cc1 [compound 32, 5-fluoro-3-(1-(6-(p-tolyl)pyridazin-3-yl)piperidin-4-yl)benzo[d]isoxazole]	45	> 1000 nM		
Cn1cc(-c2ccc(N3CCC(n4c(C(F)(F)F)nc5ccccc54)CC3)nn2)cn1 [compound 41, 1-(1-(6-(1-methyl-1H-pyrazol-4-yl)pyridazin-3-yl)piperidin-4-yl)-2-(trifiuoromethyl)-1H-benzo[d]imidazole]	38	> 1000 nM		
Cn1cc(-c2ccc(N3CCC(n4nnc5ccccc54)CC3)nn2)cn1 [compound 48, 1-(1-(6-(1-methyl-1H-pyrazol-4-yl)pyridazin-3-yl)piperidin-4-yl)-1H-benzo[d][1,2,3]triazoie]	60	939 nM		
CC(C)(C)OC(=O)c1ccc(-c2ccc(N3CCC(N4CCc5ccc(F)cc54)CC3)nn2)cc1 [compound 55, tert-butyl 4-(6-(4-(6-fluoroindolin-1-yl)piperidin-1-yl)pyridazin-3-yl)benzoate]	8	> 1000 nM		
NC(=O)c1ccc(-c2ccc(N3CCC(N4CCc5ccc(F)cc54)CC3)nn2)cc1 [compound 56, 4-(6-(4-(6-fluoroindolin-1-yl)piperidin-1-yl)pyridazin-3-yl)benzamide]	28	> 1000 nM		
Cn1cc(-c2ccc(N3CCC(N4CCc5c(Cl)cccc54)CC3)nn2)cn1 [compound 67, 4-chloro-1-(1-(6-(1-methyl-1H-pyrazol-4-yl)pyridazin-3-yl)piperidin-4-yl)indoline]	32	> 1000 nM		
Cn1cc(-c2ccc(N3CCC(N4CCc5c(Cl)cc(Cl)cc54)CC3)nn2)cn1 [compound 68, 4,6-dichloro-1-(1-(6-(1-methyl-1H-pyrazol-4-yl)pyridazin-3-yl)piperidin-4-yl)indoline]	34			
Fc1ccc2onc(C3CCN(c4ccc(-n5cccn5)nn4)CC3)c2c1 [compound 87, 3-(1-(6-(1H-pyrazol-1-yl)pyridazin-3-yl)piperidin-4-yl)-5-fluorobenzo[d]isoxazole]	45			
Cc1cn(-c2ccc(N3CCC(N4CCCc5ccccc54)CC3)nn2)cn1 [compound 90, 1-(1-(6-(4-methyl-1H-imidazol-1-yl)pyridazin-3-yl)piperidin-4-yl)-1,2,3,4-tetrahydroquinoline]	29			
Cc1nccn1-c1ccc(N2CCC(c3noc4ccc(F)cc34)CC2)nn1 [compound 93, 5-fluoro-3-(1-(6-(2-methyl-1H-imidazol-1-yl)pyridazin-3-yl)piperidin-4-yl)benzo[d]isoxazole]	41			
